Laboratory results reported in patent publication US20250361217A1, “FATTY ACID COMPOUNDS” (University of Pittsburgh - Of the Commonwealth System of …, priority 2022, published 2025).

Experiments:
[1] = tested on: HFD model in C57BL/6J mice; experiment: HPLC-MS analysis of plasma cholesterol, cholesterol-ester and triglycerides in HFD mice; type: in vivo; conditions: 50 mg/kg
Source text: Male C57BL/6J mice were purchased from Jackson Laboratory (Bar Harbor, ME, USA). Mice were acclimated for a week before being randomized to receive either a low-fat diet (LFD) or a high-fat diet (HFD) purchased from Research Diets (New Brunswick, NJ, USA). Obesity was induced by the HFD (D12492, with 60% of the adjusted calories derived from fat) for 16 weeks beginning at age of 8 weeks. Age-matched controls were maintained on a LFD (D12450J, matching the sucrose level of D12492). While maintaining the diet, mice under HFD were divided into 4 groups (n=8 per group) and were treated every 2 days by oral gavage for 7 weeks with 100 μl of 11D3 (50 mg/kg), 11U3 (50 mg/kg), or 11U3-2M (50 mg/kg) formulated in a solution of 2:1 of polyethylene glycol (Fisher Scientific, PEG400 #p167-1) and saline, containing 1.5% of octanoic acid (TCI, #00027). Control groups received 100 μl of PEG400/saline/octanoic acid as the vehicle (Veh). LFD mice were divided into 2 groups (n=8 per group) and treated with veh or 11D3 (50 mg/kg) to detect any effect of natural FuFA in LFD. Mice were grouped to start at the same weight mean before starting the treatment. During and before gavage treatment, mice were fed ad libitum and given free access to water. Food intake, water consumption, and mouse weight were monitored every week. At 20 weeks (4 weeks of treatment), a glucose tolerance test (GTT) was performed on all cohorts. After 2 weeks of recovery (22 weeks), a whole-body composition was performed using EchoMRI™-100H. At the end of the 23 weeks study, mice were euthanized with isoflurane followed by laparotomy. The blood was collected, and mice were perfused using 0.9% NaCl. Organs were harvested and snap-frozen in liquid nitrogen gas and stored at −80° C. for further analysis. […]
Plasma TG were analyzed by HPLC-HR-MS/MS using a C8 Luna column (2×150 mm, 5 μm, Phenomenex) with a flow rate of […] and mobile phases of acetonitrile/water (9:1, v/v) 0.1% ammonium acetate (solvent A) and isopropanol/acetonitrile 0.1% ammonium acetate (7:3, v/v) (solvent B). […]

liver gene expression = experiment: RNA-Sequencing of livers with IPA pathway analysis; type: in vivo, mice
Description: Bioinformatics and Biostatistics Analyses on RNA Sequencing Data Transcriptome sequencing was performed on mice samples from each group with four replicates per condition. Quality control was first performed on the raw sequencing data by tool FastQC. Then low-quality reads and adapter sequences were trimmed out by tool Trimmomatic. After pre-processing, the surviving reads were aligned into mouse reference genome mm10 by STAR aligner. Gene counts per gene per sample were quantified by function—quantMode GeneCounts supported by the STAR aligner. Gene expression normalization was performed by R package DEseq2.
Given the gene expression profile, differential expression analyses were performed based on gene counts by DEseq2 package. Five pairwise comparisons were analyzed: LFD+Veh vs LFD+11D3, HFD+Veh vs HFD+11D3, HFD+Veh vs HFD+11U3, HFD+Veh vs HFD+11U3-2M and LFD+Veh vs HFD+Veh. Differentially expressed genes (DEGs) were defined by FDR=5% and absolute fold-change equal to or greater than 1.5. For the downstream analysis, Ingenuity Pathways Analysis (IPA) was employed to perform pathway enrichment analysis on the DEGs. Significant pathways were defined by FDR=5%. Regulation directions were measured by Z-scores, where a positive Z-score indicates activation of the pathway and a negative Z-score means inhibition, while some pathways show out unknown or mix of regulation directions.

LncRNA GM15441 = experiment: Fluorescence RNA in-situ hybridization for GM15441; type: in vivo, mice; conditions: livers of HFD-treated groups
Description: Fluorescence RNA in-situ hybridization was performed on tissue sections using LNA ISH Optimization Kits (Qiagen, #339459) according to manufacturer's instructions. Briefly, the sectioning slides were deparaffinized and digested by proteinase K approach for 15 min at 37° C. U6, scrambled RNA, and GM15441 (LCD0173184) probes were hybridized at final concentration of 1 nM, 40 nM and 40 nM, respectively, followed by stringent washes of serial diluted SSC (Sigma, #S6639-1 L). After 30 min blocking, the slides were incubated with anti-DIG-POD (Roche, #11207733910) at 1:400 dilution for 60 min at RT according to manufacturer's instructions. TSA-plus Cyanine 3 (Akoya Bioscience, #NEL744001KT) substrate was added to the sections and incubated twice (5 min per incubation) to amplify the fluorescence signal. NucBlue Live ReadyProbes Reagent was applied to the slides at last to facilitate cell nuclei staining. Images were acquired on a fluorescent microscope (Leica, DMi8) using the Ocular Advanced Scientific Camera Control software (Digital Optics Limited).

CCCc1ccc(CCCCCCCCCC(C)(C)C(=O)O)o1 [11U3-2M, 2,2-Dimethyl-11-(5-propylfuran-2-yl)undecanoic acid]
plasma TC compared to HFD+veh [1]: reduction | plasma TG reduced vs HFD+veh [1]: 16% | plasma total cholesterol-ester (TCE) reduced vs HFD+veh [1]: 33% | activated pathways (Ingenuity Pathway Analysis) (liver gene expression; liver RNA-Seq DEGs vs HFD+veh): FA β-oxidation was the most activated pathway | LncRNA GM10804 downregulated (liver gene expression; liver RNA-Seq vs HFD+veh): 5 fold | LncRNA GM15441 increased (liver gene expression; liver RNA-Seq vs HFD+veh): 137 fold | increase in PDK4 gene (liver gene expression; liver RNA-Seq vs HFD+veh): 7 fold | GM15441 in-situ hybridization signal (LncRNA GM15441): only detected in the nucleus of cells from 11U3-2M treated livers
